Consider six compounds from ChEMBL document CHEMBL3745593, “Medicinal Chemistry Approaches to Heart Regeneration” (J Med Chem, 2015).

Assay [1] is described as follows: Induction of cardiogenesis in human embryonic stem cells by DAPI staining based immunofluorescence method relative to control. The assay is classed as functional, Embryonic stem cell.
Assay [2] in a line: Induction of cardiogenesis in mouse CGR8 cells assessed as cardiac troponin positive cells measured on day 5 +10+2 EB-derived cells by flow cytometry analysis (reference value: 11%). The class given is functional. (A flow cytometer gives signals particle by particle.)
Assay [3] in a line: Suppression of cardiogenesis in mouse embryonic stem cells assessed as ventricular like cardiomyocytes by patch clamp technique (reference value: 86%). The class given is functional, Embryonic stem cell. Background: In patch-clamp work, channel activity is measured electrically.
Assay [4] in a line: Induction of cardiogenesis in mouse embryonic stem cells assessed as enrichment of atrial like cardiomyocytes by patch clamp technique (reference value: 7%). The class given is functional, Embryonic stem cell.
Assay [5] is described as follows: Induction of cardiogenesis in mouse embryonic stem cells assessed as enrichment of pacemaker like cardiomyocytes by patch clamp technique (reference value: 7%). The assay is classed as functional, Embryonic stem cell.
The target in assay [6] is Vascular endothelial growth factor receptor 2 (Homo sapiens, UniProt P35968). As to the kind of experiment: Inhibition of human KDR in presence of (33P)gamma ATP.
The subject of the next assay is Danio rerio. In words: Inhibition of BMPR in zebra fish embryo assessed as dorsalization administered 3 hr post fertilization.
A further assay has as its target T1, TGF-beta receptor type-1 (Homo sapiens, UniProt P36897).
T1 sequence (P36897 whole entry): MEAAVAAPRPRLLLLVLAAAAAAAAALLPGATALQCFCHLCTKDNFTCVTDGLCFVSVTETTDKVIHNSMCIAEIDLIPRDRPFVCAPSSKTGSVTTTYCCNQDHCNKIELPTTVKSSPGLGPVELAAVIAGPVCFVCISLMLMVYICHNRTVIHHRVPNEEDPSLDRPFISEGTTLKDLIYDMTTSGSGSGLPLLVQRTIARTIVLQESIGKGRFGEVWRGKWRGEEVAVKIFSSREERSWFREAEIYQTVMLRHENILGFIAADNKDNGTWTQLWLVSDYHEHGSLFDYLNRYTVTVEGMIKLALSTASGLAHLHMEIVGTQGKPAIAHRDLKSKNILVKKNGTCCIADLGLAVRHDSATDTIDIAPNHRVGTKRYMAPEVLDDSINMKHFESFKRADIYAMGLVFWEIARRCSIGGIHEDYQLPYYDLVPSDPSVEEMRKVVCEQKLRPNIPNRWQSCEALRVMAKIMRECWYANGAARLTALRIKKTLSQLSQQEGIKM
In words: Inhibition of human ALK5 in presence of (33P)gamma ATP.

In another assay the target is T2, Activin receptor type-1 (Homo sapiens, UniProt Q04771).
T2 sequence (Q04771 whole entry): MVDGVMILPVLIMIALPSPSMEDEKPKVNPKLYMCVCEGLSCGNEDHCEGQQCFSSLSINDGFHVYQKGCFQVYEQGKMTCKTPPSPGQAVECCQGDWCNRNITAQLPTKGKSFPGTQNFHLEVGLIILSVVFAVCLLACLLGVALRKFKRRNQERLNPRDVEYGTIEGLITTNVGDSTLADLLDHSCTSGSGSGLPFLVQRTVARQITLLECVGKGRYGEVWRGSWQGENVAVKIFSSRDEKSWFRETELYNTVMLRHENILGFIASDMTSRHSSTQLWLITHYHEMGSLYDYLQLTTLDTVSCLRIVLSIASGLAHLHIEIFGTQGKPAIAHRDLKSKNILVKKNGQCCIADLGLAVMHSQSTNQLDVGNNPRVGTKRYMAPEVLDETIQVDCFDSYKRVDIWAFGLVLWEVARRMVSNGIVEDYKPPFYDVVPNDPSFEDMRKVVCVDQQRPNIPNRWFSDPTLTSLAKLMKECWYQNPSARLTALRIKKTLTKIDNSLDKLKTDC
As to the kind of experiment: Inhibition of human ALK2 in presence of (33P)gamma ATP.

Assay [7] in a line: Induction of cardiogenesis in human embryonic stem cells assessed as as enrichment of pacemaker like cardiomyocytes (reference value: 21%). The class given is functional, Embryonic stem cell.

Sequence of Vascular endothelial growth factor receptor 2 (P35968 whole entry): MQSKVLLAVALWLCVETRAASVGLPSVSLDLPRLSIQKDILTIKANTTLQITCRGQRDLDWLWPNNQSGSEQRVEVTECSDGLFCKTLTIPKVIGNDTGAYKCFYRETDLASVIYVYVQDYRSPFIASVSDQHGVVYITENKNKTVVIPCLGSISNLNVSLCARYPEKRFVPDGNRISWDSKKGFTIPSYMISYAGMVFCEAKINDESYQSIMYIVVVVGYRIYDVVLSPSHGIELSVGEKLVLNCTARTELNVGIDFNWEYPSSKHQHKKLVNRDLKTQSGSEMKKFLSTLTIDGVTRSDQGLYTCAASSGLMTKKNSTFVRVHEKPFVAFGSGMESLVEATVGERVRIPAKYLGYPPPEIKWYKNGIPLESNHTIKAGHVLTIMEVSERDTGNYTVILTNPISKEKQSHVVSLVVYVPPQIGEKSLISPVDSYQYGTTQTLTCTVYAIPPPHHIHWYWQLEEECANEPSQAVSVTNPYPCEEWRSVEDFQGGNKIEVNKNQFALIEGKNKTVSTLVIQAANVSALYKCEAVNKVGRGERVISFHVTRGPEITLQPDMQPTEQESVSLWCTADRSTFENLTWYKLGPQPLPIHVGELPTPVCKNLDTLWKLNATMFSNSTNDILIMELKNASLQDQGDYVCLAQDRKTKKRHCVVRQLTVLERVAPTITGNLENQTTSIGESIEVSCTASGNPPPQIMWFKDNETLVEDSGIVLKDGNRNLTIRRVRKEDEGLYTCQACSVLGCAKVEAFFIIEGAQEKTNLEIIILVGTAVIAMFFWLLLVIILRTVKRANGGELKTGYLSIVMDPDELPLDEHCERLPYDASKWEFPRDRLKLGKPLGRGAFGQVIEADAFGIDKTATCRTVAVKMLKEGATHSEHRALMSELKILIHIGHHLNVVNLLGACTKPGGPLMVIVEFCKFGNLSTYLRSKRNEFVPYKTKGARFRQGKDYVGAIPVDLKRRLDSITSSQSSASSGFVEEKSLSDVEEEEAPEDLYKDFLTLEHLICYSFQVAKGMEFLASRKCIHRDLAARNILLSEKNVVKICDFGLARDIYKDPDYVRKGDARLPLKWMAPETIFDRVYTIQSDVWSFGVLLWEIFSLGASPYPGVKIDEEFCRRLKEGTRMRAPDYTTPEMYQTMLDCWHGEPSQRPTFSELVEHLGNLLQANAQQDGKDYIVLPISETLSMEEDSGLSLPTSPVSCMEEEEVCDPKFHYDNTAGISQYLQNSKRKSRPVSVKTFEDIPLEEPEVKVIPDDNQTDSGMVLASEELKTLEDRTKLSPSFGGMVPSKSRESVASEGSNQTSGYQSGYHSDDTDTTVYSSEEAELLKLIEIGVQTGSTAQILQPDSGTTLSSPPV

For `C[S+]([O-])c1ccc(-c2nc(-c3ccc(F)cc3)c(-c3ccncc3)[nH]2)cc1` (configuration not stated) [SB-203580], the “fold change (FC)” value in assay [1] is reported as 2.5.
On to `CCn1c(=O)[nH]c2ccccc21`, for which the Activity in [2] was determined as 59%; in assay [3], 21%; in [4], 21%; in [5], 58%.
As for `c1cc(-c2cnn3cc(-c4ccc(OCCN5CCCCC5)cc4)cnc23)ccn1` [DORSOMORPHIN], the values for the IC50 (in [6]; on TGF-beta receptor type-1) were 220 nM and 10000 nM, respectively. The EC100 with Danio rerio is 2.5 µM.
Turning to `c1ccc2c(-c3cnn4cc(-c5ccc(N6CCNCC6)cc5)cnc34)ccnc2c1`, the EC100 in the assay on Danio rerio came out at 3 µM.
As to `CC(C)Oc1ccc(-c2cnc3c(-c4ccnc5ccccc45)cnn3c2)cc1`, on Activin receptor type-1, the IC50 – broadly, the concentration that inhibits the measured activity by half – amounted to 100 nM. The EC100 with Danio rerio was 0.2 µM.
Take `COc1cc2ncnc(Nc3cccc(Cl)c3)c2cc1OC` [TYRPHOSTIN AG-1478]: the Activity in assay [7] came to 52%.
